Test: Particle size distribution by Malvern Mastersizer S (volume basis)
Type: physicochemical
Conditions: first analysis after formation, diluted with water
Method: For the examples containing a substantial fraction of nanoparticles <100 nm in diameter, photon correlation spectroscopy was performed on a Brookhaven with an ALV5000 multiple tau correlator to determine the average particle size using a second order cumulant fit. In accordance with standard practice, the viscosity and index of refraction of the solvent at a volume percentage the same as after mixing were input as properties of the fluid. A Malvern Mastersizer S version 2.18 was also used to determine the particle size distribution based on volume, or similar to a weight. Likewise, the average particle size was based on volume or mass, D[4,3]. The data analysis used a polydisperse model and the Standard-Wet (3OHD) presentation that assumes the particle is suspended in water. Some samples were diluted with water for analysis. For all processing conditions, the water used was purified by RO and filtered and the temperature is given within 2° C. The polymer blocks were nominal molecular weight with the nomenclature (1000) describing a block nominally of 1000 g/mole. The blocks could have contained minor impurities (<10% by weight and typically <5% by weight) due to the method of synthesis.

Mean size D[4,3]: 120 μm | Yield of nanoparticles below 1060 nm: 9%
Compound: CC1=C(/C=C/C(C)=C/C=C/C(C)=C/C=C/C=C(C)/C=C/C=C(C)/C=C/C2=C(C)CCCC2(C)C)C(C)(C)CCC1 [β-carotene]

Source: patent publication US9956179B2, “Process and apparatuses for preparing nanoparticle compositions with amphiphilic copolymers and their use” (The Trustees of Princeton University, priority 2001, dated 2018)
